The target of data set [1] is T1, human VPAC2 (Homo sapiens, UniProt P41587).
T1 construct: expressed in transfected cells
T1 sequence (P41587 24-438): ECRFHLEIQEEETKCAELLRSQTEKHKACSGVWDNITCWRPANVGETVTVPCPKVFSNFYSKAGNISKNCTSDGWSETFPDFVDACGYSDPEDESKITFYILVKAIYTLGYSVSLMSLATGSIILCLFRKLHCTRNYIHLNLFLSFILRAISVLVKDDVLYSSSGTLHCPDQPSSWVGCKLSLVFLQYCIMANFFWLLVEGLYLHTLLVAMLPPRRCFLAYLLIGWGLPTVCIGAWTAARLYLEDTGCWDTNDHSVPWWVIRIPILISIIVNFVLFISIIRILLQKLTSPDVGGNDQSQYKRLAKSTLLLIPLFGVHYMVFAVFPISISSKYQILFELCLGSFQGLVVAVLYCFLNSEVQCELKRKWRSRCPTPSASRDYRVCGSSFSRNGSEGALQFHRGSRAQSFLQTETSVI
Nature of the data set: Filter binding assay, 125I-labeled VIP tracer, VPAC2 membranes. The settings on record: read-out: Human VPAC2 Receptor Binding (IC50; nM).
Protocol: For this assay, the solutions and equipment include:
Presoak solution: 0.5% Polyethyleneamine in Aqua dest
Buffer for flushing filter plates: 25 mM HEPES pH 7.4
Blocking buffer: 25 mM HEPES pH 7.4; 0.2% protease free BSA
Assay buffer: 25 mM HEPES pH 7.4; 0.5% protease free BSA
Dilution and assay plate: PS-Microplate, U form
Filtration Plate: Multiscreen FB Opaque Plate; 1.0 μM Type B Glasfiber filter
In order to prepare the filter plates, the presoak solution is aspirated by vacuum filtration. The plates are flushed twice with 200 μL flush buffer. 200 μL blocking buffer is added to the filter plate. The filter plate is then incubated with 200 μL presoak solution for 1 hour at room temperature.
The assay plate is filled with 25 μL assay buffer, 25 μL membranes (2.5 μg) suspended in assay buffer, 25 μL compound (agonist) in assay buffer, and 25 μL tracer (about 40000 cpm) in assay buffer. The filled plate is incubated for 1 hour with shaking.
The transfer from assay plate to filter plate is conducted. The blocking buffer is aspirated by vacuum filtration and washed two times with flush buffer. 90 μL is transferred from the assay plate to the filter plate. The 90 μL transferred from assay plate is aspirated and washed three times with 200 μL flush buffer. The plastic support is removed. It is dried for 1 hour at 60° C. 30 μL Microscint is added. The count is performed.

The target in the next data set is T2, rat VPAC1 receptor (Rattus norvegicus, UniProt P30083).
T2 construct: expressed in transfected cells; host or cells: CHO-PO (transient, Lipofectamine)
T2 sequence (P30083 31-459): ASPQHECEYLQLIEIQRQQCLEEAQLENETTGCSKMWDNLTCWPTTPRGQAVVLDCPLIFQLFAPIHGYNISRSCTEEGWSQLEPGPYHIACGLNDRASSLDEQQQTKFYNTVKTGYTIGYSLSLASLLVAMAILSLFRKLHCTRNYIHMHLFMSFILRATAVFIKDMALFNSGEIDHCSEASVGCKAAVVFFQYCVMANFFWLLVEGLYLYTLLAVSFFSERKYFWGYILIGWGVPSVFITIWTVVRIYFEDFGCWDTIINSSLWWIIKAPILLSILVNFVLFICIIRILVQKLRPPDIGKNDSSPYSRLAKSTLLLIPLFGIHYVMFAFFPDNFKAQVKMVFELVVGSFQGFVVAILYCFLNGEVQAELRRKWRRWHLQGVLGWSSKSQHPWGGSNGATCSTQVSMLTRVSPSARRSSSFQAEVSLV
Nature of the data set: DiscoveRx cAMP assay, in vitro potency at rat VPAC1 receptor. It is filed as cell-based. The settings on record: CHO-PO cells transiently transfected with rat VPAC1; cAMP generation; mean of two independent runs. Here is the method: DiscoveRx: CHO-PO cells are transiently transfected with rat VPAC1 or VPAC2 receptor DNA using commercially available transfection reagents (Lipofectamine from Invitrogen). The cells are seeded at a density of 10,000/well in a 96-well plate and are allowed to grow for 3 days in […] culture medium. At day 3, the assay is performed.
On the day of the experiment, the medium is removed. Also, the cells are washed twice. The cells are incubated in assay buffer plus IBMX for 15 minutes at room temperature. Afterwards, the stimuli are added and are dissolved in assay buffer. The stimuli are present for 30 minutes. Then, the assay buffer is gently removed. The cell lysis reagent of the DiscoveRx cAMP kit is added. Thereafter, the standard protocol for developing the cAMP signal as described by the manufacturer is used (DiscoveRx Inc., USA). EC50 values for cAMP generation are calculated from the raw signal or are based on absolute cAMP levels as determined by a standard curve performed on each plate.
Results for each agonist are the mean of two independent runs. Rat VPAC1 and VPAC2 results are only generated using the DiscoveRx assay.
A general note: cAMP levels reflect the balance of adenylyl cyclase and phosphodiesterase activity.

The nature of data set [2]: Rat serum stability (activity remaining, CHO-VPAC2 DiscoveRx read-out). It is filed as in vitro ADME. Summed up:
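Peptides preincubated overnight in rat serum at 37 °C without aprotinin versus 4 °C with aprotinin, then tested as 11-point 5× dilutions in duplicate on CHO-VPAC2 cells, 30 min at RT. cAMP measured by DiscoveRx kit against standards; EC50 derived for each aliquot.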

Another data set has as its target T3, human VPAC1 (Homo sapiens, UniProt P32241).
T3 construct: expressed in transfected cells
T3 sequence (P32241 31-457): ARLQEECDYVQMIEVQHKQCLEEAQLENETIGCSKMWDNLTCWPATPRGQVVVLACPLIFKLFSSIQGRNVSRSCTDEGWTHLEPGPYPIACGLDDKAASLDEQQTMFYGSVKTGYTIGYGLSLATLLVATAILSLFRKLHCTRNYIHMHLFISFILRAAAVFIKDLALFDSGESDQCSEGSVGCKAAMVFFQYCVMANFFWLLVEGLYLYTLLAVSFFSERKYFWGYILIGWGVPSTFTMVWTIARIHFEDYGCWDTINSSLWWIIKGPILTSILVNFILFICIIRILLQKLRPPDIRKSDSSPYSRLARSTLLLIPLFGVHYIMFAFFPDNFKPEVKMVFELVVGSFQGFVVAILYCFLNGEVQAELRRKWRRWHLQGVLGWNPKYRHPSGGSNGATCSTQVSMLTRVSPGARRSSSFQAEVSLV
Nature of the data set: Filter binding assay, 125I-labeled VIP tracer, VPAC1 membranes. The following applies: read-out: Human VPAC1 Receptor Binding (IC50; nM).

The target of a further data set is T4, rat VPAC2 receptor (Rattus norvegicus, UniProt P35000).
T4 construct: expressed in transfected cells; host or cells: CHO-PO (transient, Lipofectamine)
T4 sequence (P35000 23-437): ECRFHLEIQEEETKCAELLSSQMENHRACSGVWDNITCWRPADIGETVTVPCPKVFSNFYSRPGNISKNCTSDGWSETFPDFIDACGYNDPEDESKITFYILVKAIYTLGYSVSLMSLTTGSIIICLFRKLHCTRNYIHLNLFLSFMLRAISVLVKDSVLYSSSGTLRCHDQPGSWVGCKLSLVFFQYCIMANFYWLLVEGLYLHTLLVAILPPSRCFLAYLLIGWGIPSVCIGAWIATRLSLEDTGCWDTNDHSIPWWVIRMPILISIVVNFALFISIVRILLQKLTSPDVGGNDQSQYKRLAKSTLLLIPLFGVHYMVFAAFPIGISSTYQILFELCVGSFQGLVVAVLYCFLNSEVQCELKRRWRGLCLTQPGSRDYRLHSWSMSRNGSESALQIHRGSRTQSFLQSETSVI
Nature of the data set: DiscoveRx cAMP assay, in vitro potency at rat VPAC2 receptor. It counts as cell-based. The following applies: CHO-PO cells transiently transfected with rat VPAC2; cAMP generation; mean of two independent runs.

The target of data set [3] is T1, human VPAC2. Nature of the data set: Alpha screen cAMP assay, in vitro potency at human VPAC2 receptor. It is filed as cell-based. The settings on record: cAMP generation; single result from two analyses in a single run, some values average of more than one experiment.
A further data set deals with T5, human VPAC1 receptor (human, UniProt P32241 31-457).
T5 sequence (looked up): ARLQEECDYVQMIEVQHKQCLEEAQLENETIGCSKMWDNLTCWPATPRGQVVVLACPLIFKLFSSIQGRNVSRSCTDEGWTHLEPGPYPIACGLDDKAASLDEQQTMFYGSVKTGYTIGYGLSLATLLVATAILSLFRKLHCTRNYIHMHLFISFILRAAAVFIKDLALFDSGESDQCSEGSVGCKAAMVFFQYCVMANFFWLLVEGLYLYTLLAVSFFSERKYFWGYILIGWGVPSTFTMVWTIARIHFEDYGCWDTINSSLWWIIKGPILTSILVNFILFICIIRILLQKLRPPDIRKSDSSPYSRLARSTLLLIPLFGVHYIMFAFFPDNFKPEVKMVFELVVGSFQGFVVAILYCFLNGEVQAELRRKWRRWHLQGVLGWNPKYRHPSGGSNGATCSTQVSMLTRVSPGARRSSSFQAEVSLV
Nature of the data set: cell-based or functional assay.

Another data set has as its target T6, human VPAC2 receptor (human, UniProt P41587 24-438).
T6 sequence (looked up): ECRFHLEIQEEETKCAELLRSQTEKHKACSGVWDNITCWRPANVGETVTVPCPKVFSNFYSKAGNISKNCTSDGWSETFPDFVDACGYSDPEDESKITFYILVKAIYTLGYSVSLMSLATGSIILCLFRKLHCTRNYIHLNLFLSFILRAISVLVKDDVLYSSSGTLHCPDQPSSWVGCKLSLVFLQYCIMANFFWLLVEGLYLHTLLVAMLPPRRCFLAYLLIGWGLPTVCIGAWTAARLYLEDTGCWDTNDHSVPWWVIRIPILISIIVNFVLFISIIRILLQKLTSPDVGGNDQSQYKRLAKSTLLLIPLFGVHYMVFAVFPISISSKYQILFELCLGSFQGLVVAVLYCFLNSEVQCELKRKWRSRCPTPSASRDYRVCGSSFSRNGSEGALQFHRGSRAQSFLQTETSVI
Nature of the data set: cell-based or functional assay.

Square brackets hold non-standard residues; d marks the D form. Peptide text beside a SMILES is read from it. * marks the point of attachment. Orn = NCCC[C@H](N)C(=O)O; Hexanoyl = CCCCCC(=O)*; Aib = CC(C)(N)C(=O)O Bounds are passed on as bounds.

For `CCCCCC(=O)N[C@@H](Cc1c[nH]cn1)C(=O)N[C@@H](CO)C(=O)N[C@@H](CC(=O)O)C(=O)N[C@@H](C)C(=O)N[C@H](C(=O)N[C@@H](Cc1ccccc1)C(=O)N[C@H](C(=O)N[C@@H](CCC(=O)O)C(=O)N[C@@H](CCC(N)=O)C(=O)N[C@@H](Cc1ccc(OC)cc1)C(=O)N[C@H](C(=O)N[C@@H](CCCN)C(=O)N[C@@H](CC(C)C)C(=O)N[C@@H](CCCNC(=N)N)C(=O)NC(C)(C)C(=O)N[C@@H](CCC(N)=O)C(=O)N[C@H](C(=O)N[C@@H](C)C(=O)N[C@@H](C)C(=O)NC(C)(C)C(=O)N[C@@H](CCCN)C(=O)N[C@@H](Cc1ccc(O)cc1)C(=O)N[C@@H](CC(C)C)C(=O)N[C@@H](CCC(N)=O)C(=O)N[C@@H](CO)C(=O)N[C@H](C(=O)N[C@@H](CCCN)C(=O)N[C@@H](CCCN)C(=O)NCC(=O)NCC(=O)N1CCC[C@H]1C(=O)N[C@@H](CO)C(=O)N[C@@H](CO)C(=O)NCC(=O)N[C@@H](C)C(=O)N1CCC[C@H]1C(=O)N1CCC[C@H]1C(=O)N1CCC[C@H]1C(=O)N[C@@H](CO)C(N)=O)[C@@H](C)CC)C(C)C)[C@@H](C)O)[C@@H](C)O)C(C)C` [Agonist P488] (Hexanoyl-HSDAVFTEQY(Me)T[Orn]LR[Aib]QVAA[Aib][Orn]YLQSI[Orn][Orn]GGPSSGAPPPS-NH2), the half-inhibitory concentration (IC50) is 0.64 nM on human VPAC2 [1] and above 1000 nM on human VPAC1. The figures for the EC50 at rat VPAC1 receptor, on rat VPAC2 receptor and at human VPAC2 [3] were 1.66 nM, 0.09 nM and 0.19 nM, respectively. In data set [2], the “Rat Serum Stability (estimated purity in % after overnight incub.)” value is on record as 193.17%.

B1: VPAC2 receptor peptide agonist P29 (peptide)
peptide: HSDAVFTDNYTRLRKQVAAKKYLQSIKNKRQGGPSSGAPPPS
B1: the “Human VPAC1 Receptor: DiscoveRx (EC50; nM), cAMP generation” value with human VPAC1 receptor was 18.3 nM. Also, the “Human VPAC2 Receptor: DiscoveRx (EC50; nM), cAMP generation” value with human VPAC2 receptor turned out to be 3.02 nM.

For orientation: IC50 means the concentration that gives 50% inhibition. As usually defined, the EC50 is the midpoint of the concentration-response curve. A higher EC50 goes with a less potent agent.

These data come from patent US20080194482A1, “Selective Apac2 Receptor Peptide Agonists” (priority 2005, published 2008).
